The term refractive index denotes a measure of how strongly the sample bends light. The mass density is the mass of a sample divided by its volume. Broadly, the viscosity is the resistance of a fluid to flow.

Numbers after ± are expanded uncertainties.

This note sets out measurements from the NIST ThermoML archive (doi:10.1021/je700177n).

Data set [1] in a line: refractive index (Na D-line) (dimensionless); wn = mass fraction of the nth substance listed. The following applies: 333.15 K, 101 kPa, Liquid.
Data set [2] is described as follows: wn = mass fraction of the nth substance listed. The following applies: 333.15 K, 101 kPa, Liquid.

For `O` [water] + O=C[C@H](O)[C@@H](O)[C@H](O)[C@H](O)CO, the refractive index in data set [1] (w2 = 0) was 1.326 ± 0.005.
For the compound `O=C[C@H](O)[C@@H](O)[C@H](O)[C@H](O)CO` [D-glucose] + O, the mass density in data set [2] (w1 = 0.1) is reported as 1022 ± 2 kg/m3; in data set [2] (w1 = 0.2), 1063 ± 3 kg/m3; in data set [2] (w1 = 0.3), 1109 ± 3 kg/m3; in data set [2] (w1 = 0.4), 1157 ± 4 kg/m3; in data set [2] (w1 = 0.5), 1207 ± 5 kg/m3; in data set [2] (w1 = 0.6) it was 1268 ± 6 kg/m3. The mass density was determined as 1334 ± 7 kg/m3 in data set [2] (w1 = 0.7) and 1376 ± 8 kg/m3 in data set [2] (w1 = 0.8). Also, the viscosity is recorded as 29.4 mPa·s in data set [2] (w1 = 0.1); 34.8 mPa·s in data set [2] (w1 = 0.2); 43.8 mPa·s in data set [2] (w1 = 0.3); 63 mPa·s in data set [2] (w1 = 0.4); 107.1 mPa·s in data set [2] (w1 = 0.5); 264.6 mPa·s in data set [2] (w1 = 0.6). Also, the figures for the viscosity in data set [2] (w1 = 0.7) and in data set [2] (w1 = 0.8) were 409.2 mPa·s and 430.8 mPa·s, respectively. In addition, the refractive index in data set [1] (w1 = 0.1) worked out at 1.341 ± 0.005; in data set [1] (w1 = 0.2), 1.359 ± 0.005; in data set [1] (w1 = 0.3), 1.375 ± 0.005; in data set [1] (w1 = 0.4), 1.395 ± 0.005; in data set [1] (w1 = 0.5) it was 1.416 ± 0.005; in data set [1] (w1 = 0.6), 1.432 ± 0.005. In addition, the refractive index is 1.455 ± 0.005 in data set [1] (w1 = 0.7), 1.477 ± 0.005 in data set [1] (w1 = 0.8) and 1.506 ± 0.005 in data set [1] (w1 = 0.9).
